Data from patent publication US12174198B2, “Methods of characterizing condensate-associated characteristics of compounds and uses thereof” (Dewpoint Therapeutics, Inc., priority 2019, dated 2024).

How the values were obtained:
Format in all cases: physicochemical
FUS-SNAP condensates = molecular target: T1, FUS-SNAP condensates (Homo sapiens, UniProt P35637); test: Fluorescence imaging of dye partitioning in FUS-SNAP condensates (I-in, I-out); conditions: for Ratio of intensity inside:outside FUS-SNAP Condensates Day 1 / Ratio of intensity inside:outside FUS-SNAP Condensates Day 2 / Ratio of intensity inside:outside FUS-SNAP Condensates Average: I-in:I-out; for Ratio of intensity inside:outside FUS-SNAP Condensates Day 1 / Ratio of intensity inside:outside FUS-SNAP Condensates Day 2 / Ratio of intensity inside:outside FUS-SNAP Condensates Average / Intensity Inside with Dye Average / Intensity Inside with Dye 1 / Intensity Inside with Dye 2 / Intensity Inside with Dye 3 / Intensity Outside with Dye Average / Intensity Outside with Dye 1 / Intensity Outside with Dye 2 / Intensity Outside with Dye 3: 10 μM dye; for Ratio of intensity inside:outside FUS-SNAP Condensates Average: average of two days; for Intensity Inside with Dye Average / Intensity Inside with Dye 1 / Intensity Inside with Dye 2 / Intensity Inside with Dye 3 / Intensity Inside Dye-No Dye: inside FUS-SNAP condensate; for Intensity Inside with Dye Average / Intensity Inside with Dye 1 / Intensity Inside with Dye 2 / Intensity Inside with Dye 3 / Intensity Outside with Dye Average / Intensity Outside with Dye 1 / Intensity Outside with Dye 2 / Intensity Outside with Dye 3: 5 μM protein; for Intensity Inside with Dye Average / Intensity Outside with Dye Average: average of three images; for Intensity Inside with Dye Average / Intensity Inside with Dye 1 / Intensity Inside with Dye 2 / Intensity Inside with Dye 3 / Intensity Inside Dye-No Dye / Intensity Outside with Dye Average / Intensity Outside with Dye 1 / Intensity Outside with Dye 2 / Intensity Outside with Dye 3 / Intensity Outside (Dye-No Dye): one day of experiments; for Intensity Inside with Dye 1 / Intensity Outside with Dye 1: image 1; for Intensity Inside with Dye 2 / Intensity Outside with Dye 2: image 2; for Intensity Inside with Dye 3 / Intensity Outside with Dye 3: image 3; for Intensity Inside Dye-No Dye / Intensity Outside (Dye-No Dye): background corrected; for Intensity Outside with Dye Average / Intensity Outside with Dye 1 / Intensity Outside with Dye 2 / Intensity Outside with Dye 3 / Intensity Outside (Dye-No Dye): outside FUS-SNAP condensate
T1 sequence (P35637 1-526): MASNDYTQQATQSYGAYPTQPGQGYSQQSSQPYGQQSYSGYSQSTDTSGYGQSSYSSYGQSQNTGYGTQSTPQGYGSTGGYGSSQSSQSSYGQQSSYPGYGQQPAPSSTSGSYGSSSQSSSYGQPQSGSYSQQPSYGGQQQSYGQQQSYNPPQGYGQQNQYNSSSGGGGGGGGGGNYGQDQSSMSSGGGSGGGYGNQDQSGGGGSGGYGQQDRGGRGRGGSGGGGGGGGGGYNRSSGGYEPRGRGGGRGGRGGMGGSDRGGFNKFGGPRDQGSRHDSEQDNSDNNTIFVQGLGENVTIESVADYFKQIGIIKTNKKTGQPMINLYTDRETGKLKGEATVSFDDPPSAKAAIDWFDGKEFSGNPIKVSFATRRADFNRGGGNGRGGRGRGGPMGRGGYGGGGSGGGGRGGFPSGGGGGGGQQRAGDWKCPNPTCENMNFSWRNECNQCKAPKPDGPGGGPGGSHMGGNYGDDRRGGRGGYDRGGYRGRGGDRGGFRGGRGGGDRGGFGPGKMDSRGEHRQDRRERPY
Description: (§1) All dye-stocks were stored as 1 mM solutions in 100% DMSO. The dyes were dissolved in dilution buffer (DB: 14.7 mM Tris, pH 7.25, 1 mM DTT) to yield 11.765 μM dye in 1.1765 DMSO. 17 μl of dye was distributed in a 384 well non-binding plate (Greiner).
(§2) Either SNAP-tagged FUS protein or tag-free PGL-3 protein was thawed at room temperature for at least 10 min, and the buffer was exchanged to partitioning buffer (PB: 50 mM Tris pH 7.25, 500 mM KCl, 5% Glycerol, and 1 mM DTT). The protein was then diluted to 33.3 μM in PB. 3 μl of protein solution were added to the 384 well plate to initiate phase separation, yielding 20 μl of 5 μM protein and 10 μM dye in 75 mM KCl, 0.75% Glycerol, 20 mM Tris, 1 mM DTT, and 1% DMSO or for no dye control reactions, 20 μl of 5 μM protein in 75 mM KCl, 0.75% Glycerol, 20 mM Tris, 1 mM DTT.
(§3) A spinning disk confocal microscope was used to acquire images of the samples. A 60×oil high-NA objective lens was used to capture the condensate droplets. The laser power was set to 20% and the exposure times were adjusted to the fluorescence emission intensity specific for each dye. Exposure times ranged from 1-1000 ms. Appropriate filter settings were used, matching the excitation and emission spectra of the respective dyes. Three images per well were taken. The background signal of protein droplets in the absence of dye was recorded for all applied imaging conditions.
(§4) Fluorescence intensity was measured inside one exemplary target condensate (Intensity inside, I-in) per image and in a region next to the exemplary target condensate (Intensity outside, I-out) by hand using the image analysis software Fiji. An example depicting the regions measured is shown FIG. 2A. Three I-in and three I-out values were measured in total for each dye in each experiment and were averaged. The measured I-in and I-out values for FUS-SNAP condensates on one day of experiments are shown in Table 2 and Table 3, respectively. The measured I-in and I-out values for PGL-3 condensates on one day of experiments are shown in Table 4 and Table 5, respectively. All values were background corrected, based on the background images (no dye controls) taken with the same microscope conditions.
(§5) The ratios of the average intensity measured in the target condensates and outside of the target condensates were calculated by dividing I-in by I-out, although dividing I-out by I-in could also have been used. The I-in:I-out ratios determined from the two different days of experiments were then averaged. The average I-in:I-out ratios for FUS-SNAP condensates are shown in FIG. 3 and the average I-in:I-out ratios for PGL-3 condensates are shown in FIG. 4. The standard deviation between the two experiments is represented by the error bars in FIG. 3 and FIG. 4.

PGL-3 condensates = molecular target: T2, PGL-3 condensates (Caenorhabditis elegans, UniProt G5EBV6); test: Fluorescence imaging of dye partitioning in PGL-3 condensates (I-in, I-out); conditions: for Ratio of intensity inside:outside PGL-3 Condensates Day 1 / Ratio of intensity inside:outside PGL-3 Condensates Day 2 / Ratio of intensity inside:outside PGL-3 Condensates Average: I-in:I-out; for Ratio of intensity inside:outside PGL-3 Condensates Day 1 / Ratio of intensity inside:outside PGL-3 Condensates Day 2 / Ratio of intensity inside:outside PGL-3 Condensates Average / Intensity Inside with Dye Average / Intensity Inside with Dye 1 / Intensity Inside with Dye 2 / Intensity Inside with Dye 3 / Intensity Outside with Dye Average / Intensity Outside with Dye 1 / Intensity Outside with Dye 2 / Intensity Outside with Dye 3: 10 μM dye; for Ratio of intensity inside:outside PGL-3 Condensates Average: average of two days; for Intensity Inside with Dye Average / Intensity Inside with Dye 1 / Intensity Inside with Dye 2 / Intensity Inside with Dye 3 / Intensity Inside Dye-No Dye: inside PGL-3 condensate; for Intensity Inside with Dye Average / Intensity Inside with Dye 1 / Intensity Inside with Dye 2 / Intensity Inside with Dye 3 / Intensity Outside with Dye Average / Intensity Outside with Dye 1 / Intensity Outside with Dye 2 / Intensity Outside with Dye 3: 5 μM protein; for Intensity Inside with Dye Average / Intensity Outside with Dye Average: average of three images; for Intensity Inside with Dye Average / Intensity Inside with Dye 1 / Intensity Inside with Dye 2 / Intensity Inside with Dye 3 / Intensity Inside Dye-No Dye / Intensity Outside with Dye Average / Intensity Outside with Dye 1 / Intensity Outside with Dye 2 / Intensity Outside with Dye 3 / Intensity Outside (Dye-No Dye): one day of experiments; for Intensity Inside with Dye 1 / Intensity Outside with Dye 1: image 1; for Intensity Inside with Dye 2 / Intensity Outside with Dye 2: image 2; for Intensity Inside with Dye 3 / Intensity Outside with Dye 3: image 3; for Intensity Inside Dye-No Dye / Intensity Outside (Dye-No Dye): background corrected; for Intensity Outside with Dye Average / Intensity Outside with Dye 1 / Intensity Outside with Dye 2 / Intensity Outside with Dye 3 / Intensity Outside (Dye-No Dye): outside PGL-3 condensate
T2 sequence (G5EBV6 1-693): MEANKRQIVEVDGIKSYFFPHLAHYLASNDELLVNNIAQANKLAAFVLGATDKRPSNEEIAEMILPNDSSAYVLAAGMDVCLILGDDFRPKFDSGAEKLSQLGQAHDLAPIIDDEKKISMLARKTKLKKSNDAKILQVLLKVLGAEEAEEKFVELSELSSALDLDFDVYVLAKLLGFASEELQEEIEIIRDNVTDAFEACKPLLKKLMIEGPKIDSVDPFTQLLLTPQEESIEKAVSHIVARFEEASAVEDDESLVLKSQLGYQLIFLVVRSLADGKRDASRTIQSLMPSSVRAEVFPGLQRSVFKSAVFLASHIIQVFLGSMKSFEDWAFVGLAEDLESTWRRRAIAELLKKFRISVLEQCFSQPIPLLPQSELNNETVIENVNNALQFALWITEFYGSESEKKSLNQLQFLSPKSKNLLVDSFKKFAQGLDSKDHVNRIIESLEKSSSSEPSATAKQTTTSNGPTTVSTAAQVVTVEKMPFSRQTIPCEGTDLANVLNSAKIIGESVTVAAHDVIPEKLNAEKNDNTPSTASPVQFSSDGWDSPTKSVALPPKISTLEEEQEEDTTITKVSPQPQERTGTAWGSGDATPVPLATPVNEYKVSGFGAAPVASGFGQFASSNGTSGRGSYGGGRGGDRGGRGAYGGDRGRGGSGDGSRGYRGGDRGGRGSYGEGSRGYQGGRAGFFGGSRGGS
Description: as §1, §2, §3, §4, §5

[1] = test system: FUS-SNAP condensates versus PGL-3 condensates; test: Condensate preference: ratio of FUS-SNAP I-in:I-out to PGL-3 I-in:I-out; conditions: average FUS-SNAP I-in:I-out divided by average PGL-3 I-in:I-out
Description: as §5

| Compound | Ratio of intensity inside:outside FUS-SNAP Condensates Day 1 (FUS-SNAP condensates) | Ratio of intensity inside:outside FUS-SNAP Condensates Day 2 (FUS-SNAP condensates) | Ratio of intensity inside:outside FUS-SNAP Condensates Average (FUS-SNAP condensates) | Intensity Inside with Dye Average (FUS-SNAP condensates) | Intensity Inside with Dye 1 (FUS-SNAP condensates) | Intensity Inside with Dye 2 (FUS-SNAP condensates) | Intensity Inside with Dye 3 (FUS-SNAP condensates) | Intensity Inside Dye-No Dye (FUS-SNAP condensates) | Intensity Outside with Dye Average (FUS-SNAP condensates) | Intensity Outside with Dye 1 (FUS-SNAP condensates) | Intensity Outside with Dye 2 (FUS-SNAP condensates) | Intensity Outside with Dye 3 (FUS-SNAP condensates) | Intensity Outside (Dye-No Dye) (FUS-SNAP condensates) | Ratio of intensity inside:outside PGL-3 Condensates Day 1 (PGL-3 condensates) | Ratio of intensity inside:outside PGL-3 Condensates Day 2 (PGL-3 condensates) | Ratio of intensity inside:outside PGL-3 Condensates Average (PGL-3 condensates) | Intensity Inside with Dye Average (PGL-3 condensates) | Intensity Inside with Dye 1 (PGL-3 condensates) | Intensity Inside with Dye 2 (PGL-3 condensates) | Intensity Inside with Dye 3 (PGL-3 condensates) | other results |
| --- | --- | --- | --- | --- | --- | --- | --- | --- | --- | --- | --- | --- | --- | --- | --- | --- | --- | --- | --- | --- | --- |
| O=c1cc(C(F)(F)F)c2ccc(O)cc2o1 [Dye 2, 7-Hydroxy-4-(trifluoromethyl)-coumarin] | 1.4 | 1.2 | 1.3 | 280.9 | 278.2 | 278.1 | 286.5 | 160.9 | 232.0 | 235.7 | 228.5 | 232.0 | 112.0 | 1.0 | 1.1 | 1.1 | 269.8 | 273.9 | 267.0 | 268.3 | Intensity Inside Dye-No Dye (PGL-3 condensates): 149.0; Intensity Outside with Dye Average (PGL-3 condensates): 262.4; Intensity Outside with Dye 1 (PGL-3 condensates): 263.1; Intensity Outside with Dye 2 (PGL-3 condensates): 258.0; Intensity Outside with Dye 3 (PGL-3 condensates): 266.0; Intensity Outside (Dye-No Dye) (PGL-3 condensates): 141.9; Ratio of FUS-SNAP:PGL-3 [1]: 1.2 |
| CC(=O)N[C@H]1[C@H](Oc2ccc3c(c2)Oc2cc(O)ccc2C32OC(=O)c3ccccc32)O[C@H](CO)[C@H](O)[C@@H]1O (stereo partly drawn) [Dye 5, Fluorescein mono-(N-acetyl-β-D-galactosaminide)] | 1.2 | 1.4 | 1.3 | 1896.7 | 2046.8 | 2005.1 | 1638.1 | 1399.1 | 1272.5 | 1319.4 | 1306.9 | 1191.0 | 1132.4 | 1.0 | 1.1 | 1.1 | 1834.5 | 1912.6 | 1794.0 | 1797.0 | Intensity Inside Dye-No Dye (PGL-3 condensates): 1237.3; Intensity Outside with Dye Average (PGL-3 condensates): 1392.9; Intensity Outside with Dye 1 (PGL-3 condensates): 1439.0; Intensity Outside with Dye 2 (PGL-3 condensates): 1386.2; Intensity Outside with Dye 3 (PGL-3 condensates): 1353.5; Intensity Outside (Dye-No Dye) (PGL-3 condensates): 1230.0; Ratio of FUS-SNAP:PGL-3 [1]: 1.3 |
